Read-outs that look alike come from different tables or passages of the source.
Experiments:
human eye = settings: concentration of 1 wt. %; cited from earlier work
accommodation = settings: systemic intake; cited from earlier work
myopia [1] = settings: oral administration, young myopic children, one year; cited from earlier work
primate eyes = assay: Choroidal thickness via Ocular Coherence Tomography (OCT) after eye drops in primate eyes; settings: atropine at 0.1 wt. % concentration; data not shown
myopia [2] = settings: cited from earlier work

Compound: Cn1c(=O)c2c(ncn2C)n(C)c1=O [caffeine]
- safety of topical use (human eye): safely been used topically
- accommodation (accommodation): enhances accommodation

Compound: Cn1cnc2[nH]c(=O)[nH]c(=O)c21 [7-methylxanthine]
- axial eye growth (myopia [1]): retards axial eye growth
- progression of myopia (myopia [1]): slowing of the progression of myopia
- side effects (myopia [1]): without significant side effects

Compound: CN1[C@@H]2CC[C@H]1C[C@@H](OC(=O)C(CO)c1ccccc1)C2 (stereo partly drawn) [atropine]
- adverse effects (primate eyes): adverse effects result
- effect on accommodative amplitude (myopia [2]; 0.01 wt. %): not significant
- pupil size increase (myopia [2]; 0.01 wt. %): minimal
- adverse effects (myopia [2]; concentrations of 1% and 0.5%): significant short term adverse effects
- progression of myopia (myopia [2]; initially used in concentrations of approximately 1%): slow the progression of myopia
- axial length elongation (myopia [2]; low dose, 0.01 wt %): not effective in reducing axial length elongation
- side effects (myopia [2]; low-concentration topical, 0.01 wt. %): not induce side effects

Reference: patent US20200345633A1, “Pharmaceutical Compositions for Controlling and/or Reducing the Progression of Myopia” (Brien Holden Vision Institute Limited, priority 2017, published 2020)
